What was measured:
[1] = DPPH radical scavenging activity of sample and control solutions; format: biochemical; conditions: for Scavenging activity: 0.2 mmol/L DPPH, 30 min, 517 nm, n = 3
From the text: In the DPPH molecule, due to the presence of multiple electron-withdrawing —NO2 and large π bonds of the benzene ring, nitrogen free radical is stabilized. Its methanol solution is purple and has a maximum absorption peak at 517 nm. After the addition of an antioxidant, DPPH captures an electron to be paired with the free electron, and the purple fades and turns into a yellow substance. The absorption at 517 nm disappears, and the degree of fading is quantitatively related to the number of electrons it captures. Based on this principle, a spectrophotometer is used to detect the change of the absorbance of the DPPH radical and the sample solution, and the ability of the sample to provide hydrogen atoms and scavenge free radicals can be measured.
Preparation of DPPH Solution: Measuring Exact Amount of 1,1-diphenyl-2-picryl hydrazyl (DPPH) and dissolving in methanol to prepare a 0.2 mmol/L DPPH Solution, Stored at 0° C. in Dark
Preparation of sample solutions: Vitamin C (positive control), bergenin thiodipripionic acid ester (sample), bergenin (control), thiodipropionic acid (control), mixture of bergenin and thiodipropionic acid (control). The sample solution was serially diluted with acetonitrile, and four groups of controls were separately dissolved in a test tube with a certain amount of methanol to prepare the same concentration gradient as the sample. Four corresponding groups of control solutions were prepared in the same way.
2 mL of the sample solution (Table 1: B), 2 mL 0.2 mmol/L DPPH solution was added, the mixture was mixed and reacted at room temperature in dark for 30 minutes, and methanol was then added to adjust final volume. The absorbance Ai was measured at 517 nm. 2 mL control solution and 2 mL methanol were mixed, and the absorbance Aj was measured. 2 mL DPPH solution and 2 mL methanol were mixed, and the absorbance A0 was measured.
2 mL of the control solutions (Table 1: C, D, E), 2 mL 0.2 mmol/L DPPH solution was added, the mixture was mixed and reacted at room temperature in dark for 30 minutes, and methanol was then added to adjust final volume. The absorbance Ai was measured at 517 nm. 2 mL control solution and 2 mL methanol were mixed, and the absorbance Aj was measured. 2 mL DPPH solution and 2 mL methanol were mixed, and the absorbance A0 was measured. The scavenging activity of the sample solution and control solutions is calculated according to the following calculation formula. Scavenging activity (%)=[1−(Ai−Aj)/Ao]*100%

[2] = DPPH radical scavenging activity of Ganoderma lucidum spore oil with and without bergenin thiodipripionic acid ester; format: biochemical; conditions: added at 0.2%, 0.4%, 0.6%

| SMILES | Scavenging activity ([1]; 0.04 mg/ml) [%] | Scavenging activity ([1]; 0.08 mg/ml) [%] | Scavenging activity ([1]; 0.16 mg/ml) [%] | Scavenging activity ([1]; 0.83 mg/ml) [%] | Scavenging activity ([1]; 1.66 mg/ml) [%] | Scavenging activity ([1]; 8.28 mg/ml) [%] | Scavenging activity ([1]; 16.56 mg/ml) [%] | Scavenging activity ([1]; 24.84 mg/ml) [%] | Scavenging activity ([1]; 33.12 mg/ml) [%] | scavenging ability compared with bergenin (C), thiodipropionic acid (D) and their 2:1 mixture (E) ([1]; at the same concentration) | effect on antioxidant capacity of Ganoderma lucidum spore oil [2] |
| --- | --- | --- | --- | --- | --- | --- | --- | --- | --- | --- | --- |
| COc1c(O)cc2c(c1O)C1OC(COC(=O)CCSCCC(=O)OCC3OC4c5c(cc(O)c(OC)c5O)C(=O)OC4C(O)C3O)C(O)C(O)C1OC2=O (centres unmarked) [B, bis((3,4,8,10-tetrahydroxy-9-methoxy-6-oxo-2,3,4,4a,6,10b-hexahydropyrano[3,2-c]isochromen-2-yl)methyl) 3,3′-thiodipropionate] | 28.01 | 37.78 | 51.33 | 60.22 | 76.33 | 82.56 | 95.67 | 96.22 | 96.22 | significantly better | improves the antioxidant capacity of Ganoderma lucidum spore oil |
| O=C(O)CCSCCC(=O)O [D, Thiodipropionic acid] | 1.96 | 8.73 | 9.07 | 9.18 | 9.41 | 10.56 | 11.83 | 13.09 | 14.47 | – | – |
| COc1c(O)cc2c(c1O)[C@@H]1O[C@H](CO)[C@@H](O)[C@H](O)[C@H]1OC2=O [C, Bergenin] | 8.63 | 12.25 | 19.80 | 25.59 | 41.86 | 59.12 | 94.78 | 94.87 | 95.18 | – | – |
| O=C1O[C@H]([C@@H](O)CO)C(O)=C1O [Vc, Vitamin C] | 94.90 | 94.90 | 95.03 | 95.03 | 98.67 | 98.92 | 99.00 | 99.00 | 99.00 | – | – |
